In patent publication US20050250945A1, “Triazine compounds as inhibitors of bacterial type III protein secretion systems” (priority 2004, published 2005) one finds IC50 data, which are given here for eleven compounds.

What all share (type): cell-based
The test system of assay [1] is SPI1 type III protein secretion system (SipB secretion). Nature of the assay: Secondary assay: Type III-dependent protein secretion of the SipB polypeptide (immunoblot). The note with it: Salmonella enterica, read-out: SipB IC50(uM). Here is the method:
Secondary assay: Type III-dependent protein secretion of the SipB polypeptide by S. enterica. The SipB protein of S. enterica is another effector of the SPI1 type III protein secretion system from S. enterica. In this cell-based procedure, the Type III-dependent secretion of SipB from the bacterial cytoplasm to the extracellular medium was measured through its reactivity with a cognate mouse monoclonal.
Salmonella enterica cells growing either in the presence or in the absence of inhibitors are induced for the production of SipB. Following an established period of growth the cells are sedimented and the amount of SipB present in the supernatant is quantified with a scanning imager following application of immunoblot techniques. Detection may employ an anti-SipB mouse monoclonal antibody (e.g., obtained from Jorge Galan, SUNY at Stony Brook, N.Y.) followed by treatment with commercially available sheep anti-mouse polyclonal antibody conjugated with horseradish peroxidase. Thereafter the membrane is treated with a peroxidase chemiluminescent substrate and exposed to film for an appropriate exposure time. Inhibition may be measured relative to untreated controls.
On the technique in general: In western blotting, separated proteins are transferred to a membrane and probed.

Assay [2] has as its system type III protein secretion system of P. aeruginosa PA103 (ExoU secretion). Nature of the assay: Tertiary assay: Type III-dependent secretion of ExoU by P. aeruginosa PA103 (SDS-PAGE band quantitation). The note with it: Pseudomonas aeruginosa; P. aeruginosa PA103, ExoU secreted into extracellular medium. From the text:
Tertiary assay: Inhibition of Type III protein secretion of effectors from a Pseudomonas aeruginosa system. Type III protein secretion is used by P. aeruginosa to secrete several essential virulence determinants. One effector of the type III protein secretion system of P. aeruginosa PA103 is the virulence determinants ExoU.
The amount of Type III-dependent secretion of ExoU by P. aeruginosa PA103 can be determined in a cell-based assay by quantification of the 73.9 kDa ExoU protein secreted into the extracellular medium. Such quantitation can be achieved by growing strain PA103 in a deferrated medium in the presence of nitrilotriacetic acid (an inducer of Type III protein secretion in P. aeruginosa) and either in the presence or absence of putative inhibitors. After a prolonged growth period, the cells are sedimented and the supernatants concentrated by ammonium sulfate precipitation. The proteins in the resuspended pellets are separated by electrophoresis on SDS-polyacrylamide gels. After staining gels with Colloidal Blue™, the 73.9 kDa ExoU band is quantitated by scanning through an imager. The effects of inhibitors on the intensity of the ExoU band may be measured relative to that of untreated controls.

For assay [3], the system named is SPI1 type III protein secretion system (SopE‘-’Bla secretion). Nature of the assay: Primary assay: Type III protein secretion of the chimeric SopE‘-’Bla polypeptide (nitrocefin hydrolysis). Conditions: Salmonella enterica, read-out: SopE IC50(uM). From the text: Primary assay: Type III protein secretion of the chimeric SopE‘-’Bla polypeptide by Salmonella enterica. This procedure is a cell-based assay that measures the type III-dependent secretion by Salmonella enterica of a plasmid-encoded chimeric polypeptide whose synthesis can be regulated, and which is endowed with an enzymatic activity that can be monitored colorimetrically by hydrolysis of a substrate that is unable to penetrate into the bacterial cytoplasm within the time constraints of the reaction. Thus, the colorimetric reaction is not influenced by SopE‘-’Bla polypeptide in the bacterial cytoplasm. Instead, it effectively measures the amount of polypeptide that has been secreted from the S. enterica cytoplasm to the extracellular medium via type III system protein secretion.
The SopE‘-’Bla recombinant polypeptide consists of two functionally distinct domains spliced together. The N-terminus domain is encoded by a polynucleotide region specifying the signal for type III secretion of the SopE polypeptide of S. enterica, an effector of the SPI1 type III protein secretion system. The C-terminus domain of SopE‘-’Bla consists of a 263 amino acid peptide sequence that corresponds to the TEM-1 β-lactamase expressed by plasmid pBR322 but without its N-terminal signal sequence. The TEM-1 β-lactamase part of the SopE‘-’Bla chimeric polypeptide is used as a reporter enzyme. It is capable of hydrolyzing nitrocefin resulting in a product whose accumulation can be monitored by colorimetric detection. The secretion of the SopE‘—’Bla chimeric polypeptide from the cytoplasm to the extracellular medium is dependent on type III protein secretion.
For this procedure, cells grown under conditions known to favor a functional SPI1 secretion system are induced for expression of the SopE‘-’Bla protein and grown either in the presence or in the absence of putative inhibitors for determined time. Nitrocefin is then added to the various cultures and its hydrolysis are used for quantitation. An inhibitor of Type III protein secretion is generally a compound that reduces the signal of the enzymatic reaction by decreasing the amount of SopE‘-’Bla secreted into the extracellular medium.

On to `O=C(O)C(CSCc1ccccc1)Nc1nc(-c2ccc(-c3ccccc3)cc2)nc(N2CCN(c3ccccn3)CC2)n1` (stereo in doubt) [Compound 2, (S)-3-Benzylsulfanyl-2-[4-biphenyl-4-yl-6-(4-pyridin-2-yl-piperazin-1-yl)-[1,3,5]triazin-2-yl-amino]propionic acid], for which the figures for the IC50 in assay [1], in assay [2] and in assay [3] were 36.1 µM, > 100 µM and 6.4 µM, respectively.

For the compound `O=C(O)C(Cc1ccc(Cl)cc1)Nc1nc(-c2ccc(-c3ccccc3)cc2)nc(N2CCN(c3ccccn3)CC2)n1` (centres unmarked) [Compound 6, 2-[4-Biphenyl-4-yl-6-(4-pyridin-2-yl-piperazin-1-yl)[1,3,5]triazin-2-yl-amino]-3-(4-chlorophenyl)propionic acid], the IC50 (as a rule, the midpoint of a concentration-inhibition curve) in assay [1] was 28 µM; in assay [2] it was > 100 µM; in assay [3], 5.3 µM.

Turning to `O=C(O)C(Cc1ccc(-c2ccc(-c3ccccc3)cc2)cc1)Nc1nc(-c2ccc(-c3ccccc3)cc2)nc(N2CCN(c3ccccn3)CC2)n1` (centres unmarked) [Compound 7, 2-[4-Biphenyl-4-yl-6-(4-pyridin-2-yl-piperazin-1-yl)[1,3,5]triazin-2-yl-amino]-3[1,1′;4′,1″]terphenyl-4-yl-propionic acid], the IC50 in assay [1] is 17.5 µM; in assay [2], > 100 µM; in assay [3], 12.6 µM.

For the compound `O=C(O)[C@H](C[S+]([O-])Cc1ccccc1)Nc1nc(-c2ccc(-c3ccccc3)cc2)nc(N2CCN(c3ccccn3)CC2)n1` (stereo partly drawn) [Compound 8, (R)-2-[4-Biphenyl-4-yl-6-(4-pyridin-2-yl-piperazin-1-yl)[1,3,5]triazin-2-yl-amino]-3-phenylmethanesulfinylpropionic acid], the IC50 is 34 µM in assay [1], > 100 µM in assay [2] and 14.4 µM in assay [3].

For `O=C(O)[C@H](COCc1ccccc1)Nc1nc(-c2ccc3ccccc3c2)nc(N2CCN(c3ccccn3)CC2)n1` [Compound 1, (S)-3-Benzyloxy-2-[4-naphthalen-2-yl-6-(4-pyridin-2-yl-piperazin-1-yl)-[1,3,5]triazin-2-yl-amino]propionic acid], the results for the 50% inhibitory concentration (IC50) in assay [1], in assay [2] and in assay [3] were 64.8 µM, > 100 µM and 12.4 µM, respectively.

As to `O=C(O)[C@H](C[S+]([O-])Cc1ccccc1)Nc1nc(-c2ccc(C(F)(F)F)cc2)nc(N2CCc3ccccc3C2)n1` (stereo partly drawn) [Compound 3, (R)-2-[4-(3,4-Dihydro-1H-isoquinolin-2-yl)-6-(4-trifluoromethylphenyl)-[1,3,5]triazin-2-yl-amino]-3-phenylmethanesulfinylpropionic acid], the IC50 in assay [1] was 12.5 µM; in assay [2] it was > 100 µM; in assay [3] it was 8.5 µM.

On to `O=C(O)[C@H](C[S+]([O-])Cc1ccccc1)Nc1nc(-c2ccc(C(F)(F)F)cc2)nc(N2CCN(c3ccccn3)CC2)n1` (stereo partly drawn) [Compound 10, (R)-3-Phenylmethanesulfinyl-2-[4-(4-pyridin-2-yl-piperazin-1-yl)-6-(4-trifluoromethylphenyl)[1,3,5]triazin-2-yl-amino]propionic acid], for which the IC50 in assay [1] is > 100 µM; in assay [2], > 100 µM; in assay [3], 50.1 µM.

Regarding `O=C(O)[C@H](CSCc1ccccc1)Nc1nc(Nc2ccc(C(F)(F)F)cc2)nc(-c2ccc3c(c2)OCO3)n1` [Compound 26, (R)-2-[4-Benzo[1,3]dioxol-5-yl-6-(4-trifluoromethylphenylamino)[1,3,5]triazin-2-yl-amino]-3-benzylsulfanylpropionic acid], the IC50 in assay [1] was found to be 28.1 µM; in assay [2] it was 52.1 µM; in assay [3], 5.8 µM.

Consider `O=C(O)C(Cc1ccc(Cl)cc1)Nc1nc(-c2ccc(C(F)(F)F)cc2)nc(N2CCN(c3ccccn3)CC2)n1` (centres unmarked) [Compound 4, 3-(4-Chlorophenyl)-2-[4-(4-pyridin-2-yl-piperazin-1-yl)-6-(4-trifluoromethylphenyl)[1,3,5]triazin-2-yl-amino]propionic acid], for which the IC50 in assay [1] is 46.4 µM; in assay [2], > 100 µM; in assay [3], 8.5 µM.

Consider `O=C(O)C(Cc1ccc(Cl)cc1)Nc1nc(Nc2ccc(C(F)(F)F)cc2)nc(-c2ccc(F)cc2)n1` (centres unmarked) [Compound 27, 3-(4-Chlorophenyl)-2-[4-(4-fluorophenyl)-6-(4-trifluoromethylphenylamino)-[1,3,5]triazin-2-yl-amino]propionic acid], for which the IC50 in assay [1] was > 100 µM; in assay [3] it was 6.1 µM.

Turning to `O=C(O)C(Cc1ccc(-c2ccc(C(F)(F)F)cc2)cc1)Nc1nc(-c2ccc(C(F)(F)F)cc2)nc(N2CCN(c3ccccn3)CC2)n1` (centres unmarked) [Compound 5, 2-[4-(4-Pyridin-2-yl-piperazin-1-yl)-6-(4-trifluoromethylphenyl)[1,3,5]triazin-2-yl-amino]-3-(4′-trifluoromethylbiphenyl-4-yl)propionic acid], the figures for the half-inhibitory concentration (IC50) in assay [1], in assay [2] and in assay [3] were 18.2 µM, > 100 µM and 10.2 µM, respectively.
